Test results published in ChEMBL document CHEMBL1159354, “Sphingolipids from Bombycis Corpus 101A and their neurotrophic effects” (J Nat Prod, 2003).
The source made the active and inactive calls. No cut-off for these calls is given here.

Assays:
PC-12 [1] = assay: Induction of neurite outgrowth in rat PC12 cells assessed as neurite length at 10 uM; type: functional, cell-based
PC-12 [2] = assay: Induction of neurite outgrowth in rat PC12 cells assessed as neurite length; type: functional, cell-based

Compound | Activity (PC-12 [1]) | Activity (PC-12 [2])
CCCCCCC/C=C/C=C/[C@@H](O)[C@H](CO)NC(=O)CCCCCCCCCCCCCCCCCCCCC | Active | 
CCCCCCCCC/C=C/[C@@H](O)[C@H](CO)NC(=O)CCCCCCCCCCCCCCCCC |  | Active
CCCCCCCCC/C=C/[C@@H](O)[C@H](CO)NC(=O)CCCCCCCCCCCCCCCCCCC |  | Active
CCCCCCC/C=C/C=C/[C@@H](O)[C@H](CO)NC(=O)CCCCCCCCCCCCCCCCCCC | Active | 
